BindingDB's records for doi:10.1021/acsmedchemlett.6b00299 (University of Michigan, 2016)
pIC50: −log10 of the molar value.

Assay: Inhibition of human serum factor D-mediated complement activation in rabbit erythrocytes assessed as reduction in rabbit erythrocyte hemolysis preincubated with human serum for 15 mins followed by addition of rabbit erythrocytes and Mg-EGTA measured after 30 mins

SMILES: NC(=O)c1nn(CC(=O)N2CCS[C@H]2C(=O)Nc2cccc(Br)n2)c2ncccc12
- pIC50: 6.69

SMILES: NC(=O)c1nn(CC(=O)N2[C@@H]3C[C@@H]3C[C@H]2C(=O)Nc2cccc(Br)n2)c2ncccc12
- pIC50: 7.33
